For the experiment, the system named is Epo protein produced by Hep3B cell line. In words: Epo protein produced by Hep3B cell line using ELISA method. Particulars: Homo sapiens; Hep3B cells, 48 hours incubation, DMEM without serum; maximum concentration tested 100 micromolar; range stated jointly for ELISA and AlphaLISA. In kind it is cell-based. As for the experimental part: Measure Epo Protein Produced by Hep3B Cell Line Using ELISA Method.
Hep3B cells obtained from the American Type Culture Collection (ATCC) are seeded at 2×10^4 cells/well in Dulbecco's Modified Eagle Medium (DMEM)+10% FBS in 96-well plates. Cells are incubated at 37 deg C./5% CO2/90% humidity (standard cell culture incubation conditions). After overnight adherence, medium is removed and replaced with DMEM without serum containing test compound or DMSO negative control. Following 48 hours incubation, cell culture medium is collected and assayed by ELISA to quantitate Epo protein.
Background: ELISA stands for enzyme-linked immunosorbent assay.

For the compound `CC(C)(C)c1ccc(Cn2nc(-c3ccc(C(C)(C)C)cc3)c(O)c(C(=O)NCC(=O)O)c2=O)cc1` [Example 26, N-[(6-[4-(1,1-Dimethylethyl)phenyl]-2-{[4-(1,1-dimethylethyl)phenyl]methyl}-5-hydroxy-3-oxo-2,3-dihydro-4-pyridazinyl)carbonyl]glycine], the EC50 was greater than 100 µM.

What is called EC50 is the concentration giving half of the maximal effect. Read a high EC50 as weaker potency.
